# Reference: patent publication US10772929B2, “Use of peptide compounds in treating acute pancreatitis” (SHENZHEN HIGHTIDE BIOPHARMACEUTICAL, LTD., priority 2017, dated 2020)
# Legend:
# [1] = system: sodium taurocholate-induced severe acute pancreatitis (SAP) rat model; experiment: Sodium taurocholate-induced severe acute pancreatitis (SAP) rat model; assay type: in vivo; conditions: SAP rats; for Survival Rate: 3-day experiment; for Survival rate of model animals versus model control (in words): all three doses (0.05, 0.25, 1.25 mg/kg); for Pathological score: Area of necrosis / Pathological score: Edema / Pathological score: Hemorrhage / Pathological score: Inflammation: Schmidt's scoring standard 0-4; for Pathological score: Total damage: sum of the four items
# Source text: After at least 7 days of accumulation period, 60 female and 70 male Sprague-Dawley (SD) rats were included in the study. Five females and eight males were randomly selected as the control group. Another five females and eight males were randomly selected as the sham group, the abdominal cavity was opened for each of the rats in the sham group, and a cotton swab was used to gently flip the duodenum and pancreas, then the abdominal muscle and skin were sutured after the completion of the operation The remaining animals were assigned to establish the severe acute pancreatitis (SAP) rat model using the method of retrograde injection of sodium taurocholate solution with 35 mg/kg dosage into the biliopancreatic duct. The model animals were randomly divided into 4 groups of 24 rats each (male:female=1:1) on the day after model establishment, which were the model control group (vehicle), and low dose group of peptide 12 (0.05 mg/kg), middle dose group of peptide 12 (0.25 mg/kg) and high dose group of peptide 12 (1.25 mg/kg), peptide 12 was dissolved in saline.
# The animals were subcutaneously injected once on the day after the establishment of the model, once on the second day, for a total of 2 consecutive days, and the experimental period was 3 days. During the experiment, the animals were observed by cage, including if there is any animal death or near death, mental state, behavioral activities, fecal characteristics, skin, hair, eyes, ears, nose, abdomen, external genitals, anus, limbs, feet, respiration, etc. At the end of the experiment, all the surviving rats were weighed and blood samples were collected to detect the levels of amylase, calcium and lipase in serum of rats in each group. The general anatomical observation was made, focusing on the status of pancreas, gastrointestinal tract, ascites, bile duct obstruction, pulmonary congestion and saponification spots. The pancreas was preserved in 10% formalin fixative for further pathological analysis.
# The severity of pancreatic injury was assessed by preparing HE slices of pancreas and using Schmidt's scoring standard to evaluate the pathological changes of pancreatic edema, inflammation, hemorrhage and necrosis. The total pancreatic injury calculated as the sum of the above four items.
# [2] = system: caerulein-induced acute pancreatitis (AP) model; experiment: Caerulein-induced acute pancreatitis (AP) mouse model; assay type: in vivo, BALB/c mice; conditions: caerulein AP mice; for Pathological score: Area of necrosis / Pathological score: Edema / Pathological score: Hemorrhage / Pathological score: Inflammation: Schmidt's scoring standard; for Edema of the pancreas versus model group (in words): FIG. 12; for Inflammation of the pancreas versus model group (in words): FIG. 13; for Level of amylase versus model control / Level of lipase versus model control: doses of 0.025, 0.25, 2.5 and 25 mg/kg; for Level of amylase versus model control: FIG. 10, P<0.001; for Level of lipase versus model control: FIG. 11, P<0.001
# Description: Male BALB/c mice, aged 6-8 weeks, were accumulated for more than 7 days. After fasting overnight, 10 animals were randomly selected as normal control. The remaining animals were injected with caerulein 50 μg/kg intraperitoneally every 1 hour for 10 times to induce acute pancreatitis, and they were randomly divided into model control group and peptide 12 treatment groups with the dosage of 0.025, 0.25, 2.5 and 25 mg/kg respectively, there were 10 mice in each group. Mice were given corresponding doses of peptide 12 or normal saline 5 minutes before the fourth injection of caerulein.
# The experiment was finished one hour after the 10th injection of caerulein, blood samples were collected for the determination of amylase and lipase levels. Pancreas were weighed and fixed in 10% formalin solution for subsequent pathological analysis.
# The pancreatic index was calculated as pancreatic weight/body weight, which reflected the severity of pancreatic edema. The statistical results were shown in FIG. 9, in which ### means P<0.001 compared with the normal control group; ** means P<0.01 compared with the model control group, *** means P<0.001 compared with the model control group. […] It should be noted that in FIG. 10, ### means P<0.001 compared with the normal control group; *** means P<0.001 compared with the model control group; in FIG. 11, ### means P<0.001 compared with the normal control group; *** means P<0.001 compared with the model control group.
# The severity of pancreatic injury was assessed by preparing HE slices of pancreas and using Schmidt's scoring standard to evaluate the pathological changes of pancreatic edema, inflammation, hemorrhage and necrosis.
# [3] = listed as Ac-IGLHD PSHGT LPAGS-OH
substance,measurement,setting,value
Ac-IGLHDPSHGTLPAGS-OH [Peptide 12],Ratio (treatment group/model group) of survival,[1]; 0.05 mg/kg,1.11
same,Survival Rate,[1]; 0.05 mg/kg subcutaneous once daily for 2 days,41.7%
same,Ratio (treatment group/model group) of survival,[1]; 0.25 mg/kg,1.33
same,Survival Rate,[1]; 0.25 mg/kg subcutaneous once daily for 2 days,50.0%
same,Ratio (treatment group/model group) of survival,[1]; 1.25 mg/kg,1.78
same,Survival Rate,"[1]; 1.25 mg/kg subcutaneous once daily for 2 days, 1.25 mg/kg",66.7%
same,Pathological changes of pancreas caused by sodium taurocholate,"[1]; FIG. 4 to FIG. 8, dose-dependent",reduce
same,Survival rate of model animals versus model control (in words),[1]; [3],significantly increase
same,Survival rate of model animals versus model control (in words),[1]; listed as peptide 12,improved
same,Pathological score: Area of necrosis,[1]; high dose (1.25 mg/kg),1.13 ± 0.85
same,Pathological score: Edema,[1]; high dose (1.25 mg/kg),1.21 ± 0.96
same,Pathological score: Hemorrhage,[1]; high dose (1.25 mg/kg),1.15 ± 0.83
same,Pathological score: Inflammation,[1]; high dose (1.25 mg/kg),2.67 ± 1.00
same,Pathological score: Total damage,[1]; high dose (1.25 mg/kg),6.15 ± 2.69
same,Pathological score: Area of necrosis,[1]; low dose (0.05 mg/kg),1.63 ± 0.74
same,Pathological score: Edema,[1]; low dose (0.05 mg/kg),1.33 ± 0.86
same,Pathological score: Hemorrhage,[1]; low dose (0.05 mg/kg),1.73 ± 0.89
same,Pathological score: Inflammation,[1]; low dose (0.05 mg/kg),2.90 ± 1.22
same,Pathological score: Total damage,[1]; low dose (0.05 mg/kg),7.60 ± 3.07
same,Pathological score: Area of necrosis,[1]; middle dose (0.25 mg/kg),1.11 ± 0.78
same,Pathological score: Edema,[1]; middle dose (0.25 mg/kg),1.44 ± 0.87
same,Pathological score: Hemorrhage,[1]; middle dose (0.25 mg/kg),1.31 ± 0.87
same,Pathological score: Inflammation,[1]; middle dose (0.25 mg/kg),2.83 ± 0.93
same,Pathological score: Total damage,[1]; middle dose (0.25 mg/kg),6.69 ± 2.53
same,Mental state and activity state of the surviving animals versus model control,"[1]; treatment groups 0.05, 0.25, 1.25 mg/kg",significantly better
same,"General anatomy of surviving animals (pancreas edema and liquefaction, gastrointestinal obstruction, ascites volume, bile duct obstruction, pulmonary congestion, saponification spots)",[1]; treatment groups versus control group,improved with varying degrees
same,Level of amylase in blood versus model control,"[1]; treatment groups, FIG. 2",decreased
same,Level of lipase in blood versus model control,"[1]; treatment groups, FIG. 3",decreased
same,Pathological score: Area of necrosis,[2]; 0.025 mg/kg,0.00 ± 0.00
same,Pathological score: Edema,[2]; 0.025 mg/kg,1.50 ± 0.84
same,Pathological score: Hemorrhage,[2]; 0.025 mg/kg,0.00 ± 0.00
same,Pathological score: Inflammation,[2]; 0.025 mg/kg,1.33 ± 0.52
same,Pathological score: Area of necrosis,[2]; 0.25 mg/kg,0.00 ± 0.00
same,Pathological score: Edema,[2]; 0.25 mg/kg,1.67 ± 0.82
same,Pathological score: Hemorrhage,[2]; 0.25 mg/kg,0.00 ± 0.00
same,Pathological score: Inflammation,[2]; 0.25 mg/kg,1.17 ± 0.75
same,Pathological score: Area of necrosis,[2]; 2.5 mg/kg,0.00 ± 0.00
same,Pathological score: Edema,[2]; 2.5 mg/kg,1.17 ± 1.17
same,Pathological score: Hemorrhage,[2]; 2.5 mg/kg,0.00 ± 0.00
same,Pathological score: Inflammation,[2]; 2.5 mg/kg,0.83 ± 0.75
same,Pathological score: Area of necrosis,[2]; 25 mg/kg,0.00 ± 0.00
same,Pathological score: Edema,[2]; 25 mg/kg,1.50 ± 0.55
same,Pathological score: Hemorrhage,[2]; 25 mg/kg,0.33 ± 0.82
same,Pathological score: Inflammation,[2]; 25 mg/kg,2.17 ± 0.75
same,Edema of the pancreas versus model group (in words),[2]; [3],significantly reduced
same,Edema of the pancreas versus model group (in words),[2]; listed as peptide 12,alleviated
same,Inflammation of the pancreas versus model group (in words),[2]; [3],significantly reduced
same,Inflammation of the pancreas versus model group (in words),[2]; listed as peptide 12,alleviated
same,Level of amylase versus model control,[2],significantly lowered
same,Level of amylase versus model control,[2]; [3],significantly reduced
same,Level of lipase versus model control,[2],significantly lowered
same,Level of lipase versus model control,[2]; [3],significantly reduced
same,Pancreatic index (pancreatic weight/body weight) versus model control,"[2]; doses of 0.025, 0.25 and 2.5 mg/kg, dose dependent, FIG. 9",significantly decreased
